Laboratory results: patent US20050191247A1, “Chlorhexidine compositions” (priority 2004, published 2005)
Read-outs that look alike come from different tables or passages of the source. Peptide text beside a SMILES is read from it.

Experiments:
[1] = test system: Streptococcus mutans biofilms; assay: Test A: bactericidal activity in bacterial biofilm system; assay type: cell-based; conditions: flavoring or sweetening agent added to chlorhexidine composition
Procedure: Rinse formulations were assessed for their bactericidal activity in a laboratory bacterial biofilm system. Streptococcus mutans biofilms were grown on slides in Trypticase Soy Broth supplemented with 0.5% Yeast Extract (TSB-YE), 1.0% glucose and 2.0% sucrose, and incubated for 48 hr in 5% CO2 at 37° C. Biofilms were exposed to the different formulations for 30 seconds with slow stirring. Biofilms were then extensively washed, harvested, and resuspended in fresh media. Samples were spiral-plated on Mitis-Salivarius agar. Numbers of viable bacteria were determined following standard spiral plating methodology.
The first series of experiments explored the effect of combinations of chlorhexidine-Cu^++ and chlorhexidine-Zn^++ on biofilms of Streptococcus mutans. The chlorhexidine (CHX) used in the experiments depicted in FIG. 1 was made by diluting a chlorhexidine gluconate stock solution (Chlorhexidine gluconate 20% solution, B.P. supplied by Medisca, Inc., 661 Route #3, Unit C, Plattsburg, N.Y. 12901. Telephone 1-800-932-1039) with ultrapure water to form a 0.12% chlorhexidine digluconate solution. […]
Biofilms of S. mutans were made by immersing slides in Trypticase Soy Broth-Yeast Extract (TSB-YE) supplemented with 1.0% glucose and 2.0% sucrose. […] Numbers of viable cells were determined by standard Spiral-plating methodology. […]

[2] = cited from earlier work
[3] = test system: Suspensions of S. mutans; assay: Bactericidal activity in suspensions of S. mutans; assay type: cell-based, Streptococcus mutans; conditions: within one hour of incubation; buffer control 10^6 cfu/ml
[4] = test system: S. mutans; assay: Test B: effect on ability of S. mutans to produce acid (culture pH over time); assay type: cell-based, Streptococcus mutans; conditions: chlorhexidine 0.06%, cupric acetate and zinc chloride 0.1% w/v; TSB-YE with 1.0% glucose
Procedure: Some oral bacteria are believed to cause cavities by producing acid in the mouth. Therefore, the ability of a composition to prevent and treat cavities can be measured by determining its effects on bacterial acid production.
Accordingly, the effect of representative compositions on the ability of S. mutans to produce acid was also assessed. Biofilms were exposed to CHX-Cu^++ or CHX-Zn^++ as described, then washed, harvested, and resuspended in sterile TSB-YE supplemented with 1.0% glucose at standardized concentrations. Changes in culture pH were measured over time. Representative results of these studies are illustrated in FIG. 3.
The chlorhexidine (CHX) used in the experiments depicted in FIG. 3 was made by diluting a chlorhexidine gluconate stock solution (Chlorhexidine gluconate 20% solution, B.P. supplied by Medisca, Inc., 661 Route #3, Unit C, Plattsburg, N.Y. 12901. Telephone 1-800-932-1039) with ultrapure water to form a 0.12% chlorhexidine digluconate solution. This strength mimics the concentration of chlorhexidine gluconate found in commercial rinses (Peridex®—Zila Pharmaceuticals 5227 N. 7th Street, Phoenix, Ariz. 85014. Telephone (602) 266-6700) available in the United States.
Chlorhexidine was at a concentration of 0.06%, and cupric acetate and zinc chloride were at concentrations of 0.1% w/v. Exposure of chlorhexidine alone had little effect on acid production. […]

[5] = 0.12% rinse; Drug Facts and Comparisons, 1999; cited from earlier work

COC(=O)[C@H](Cc1ccccc1)NC(=O)[C@@H](N)CC(=O)O [aspartame] (HELM PEPTIDE1{D.F.[CO[*:1]]}$$$$V2.0)
effect of additive on the antibacterial activity of the chlorhexidine oral composition [1]: do not significantly decrease
solubility in water ([2]; 20° C.): approximately 1%
solubility in water ([2]; 50° C.): ~3%

N=C(NCCCCCCNC(=N)NC(=N)Nc1ccc(Cl)cc1)NC(=N)Nc1ccc(Cl)cc1.O=C(O)[C@H](O)[C@@H](O)[C@H](O)[C@H](O)CO.O=C(O)[C@H](O)[C@@H](O)[C@H](O)[C@H](O)CO [Chlorhexidine gluconate (0.12% CHX)]
viable count after exposure [3]: 0 cfu/ml

[H]/N=C(\N/C(=N/[H])NCCCCCCNC(=N)NC(=N)Nc1ccc(Cl)cc1)Nc1ccc(Cl)cc1 [chlorhexidine]
effect on acid production (pH curves) [4]: little effect
chlorhexidine retained in the oral cavity following rinsing [5]: Approximately 30%
